For series [1], the target named is T1, Hexokinase-4 (Homo sapiens, UniProt P35557).
T1 sequence (P35557 whole entry): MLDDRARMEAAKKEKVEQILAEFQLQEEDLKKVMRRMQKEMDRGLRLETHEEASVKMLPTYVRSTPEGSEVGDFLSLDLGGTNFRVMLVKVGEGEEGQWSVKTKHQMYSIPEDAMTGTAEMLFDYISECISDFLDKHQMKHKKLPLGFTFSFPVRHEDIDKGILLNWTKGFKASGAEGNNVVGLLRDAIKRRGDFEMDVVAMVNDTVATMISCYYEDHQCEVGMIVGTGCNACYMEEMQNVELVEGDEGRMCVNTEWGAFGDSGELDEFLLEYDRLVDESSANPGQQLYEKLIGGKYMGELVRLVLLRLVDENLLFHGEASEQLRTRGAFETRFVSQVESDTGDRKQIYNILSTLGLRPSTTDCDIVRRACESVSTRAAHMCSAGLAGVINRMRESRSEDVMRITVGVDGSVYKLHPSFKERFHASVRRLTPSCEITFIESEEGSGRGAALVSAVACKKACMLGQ
Briefly: Activation of purified human glucokinase isoform 3 (13 to 466 aa) using 5 mM glucose by spectrophotometry in presence of NAD+ and glucose 6-phosphate dehydrogenase in presence of 4% HSA. Particulars: for pEC50: read-out: EC50; call rule not given here.

The target in series [2] is T1, Hexokinase-4. Briefly: Activation of purified human glucokinase isoform 3 (13 to 466 aa) using 5 mM glucose by spectrophotometry in presence of NAD+ and glucose 6-phosphate dehydrogenase.
Series [3] can be described thus: Extraction ratio in human liver microsomes at 1 uM up to 20 mins by LC-MS/MS analysis. It counts as ADME. Particulars: read-out: ERH.
The nature of series [4]: Extraction ratio in mouse liver microsomes at 1 uM up to 20 mins by LC-MS/MS analysis. Particulars: read-out: ERH. It counts as ADME. In general terms: Liver microsomes are a subcellular fraction often used to study metabolism.

pEC50: −log10 of the molar value.

Usually pEC50 stands for the EC50 on a negative log10 scale, so that one unit is a factor of ten. `CCc1ncccc1Oc1cc(Sc2ccccn2)cnc1NC=O`: the pEC50 is 4.38 in series [1] and 4.88 in series [2].

In the case of `CCc1ncccc1Oc1cc(Sc2ccccn2)cnc1NC(C)=O`, in series [1], the EC50 result is “Not Active”. The pEC50 in series [2] was less than 4.30.

On to `CCOC(=O)Nc1ncc(Sc2ccccn2)cc1Oc1cccnc1CC`, for which, in series [1], the EC50 result is on record as “Not Active”. Further, the pEC50 in series [2] is less than 4.30.

For the molecule `CCNC(=O)Nc1ncc(Sc2ccccn2)cc1Oc1cccnc1CC`, the negative-log EC50 (pEC50) is 6.26 in series [1] and 6.69 in series [2].

Take `CCc1ncccc1Oc1cc(Sc2ccccn2)cnc1NC(=O)NC`: the hepatic extraction ratio at 20 min, 1 µM in series [3] turned out to be 0.75; in series [4], 0.85. The pEC50 in series [1] is 6.64; in series [2] it was 7.06.

Turning to `CCc1ncccc1Oc1cc(Sc2ccccn2)cnc1NC(N)=O`, the negative logarithm of the EC50 (pEC50) in series [1] is 5.35; in series [2], 5.76.

Consider `CCc1ncccc1Oc1cc(Sc2ccccn2)cnc1NC(=O)NC(C)C`, for which, in series [1], the EC50 entry is recorded as “Not Active”. The negative logarithm of the EC50 (pEC50) in series [2] was less than 4.30.

In the case of `CCc1ncccc1Oc1cc(Sc2ccccn2)cnc1NC(=O)NCCO`, the values for the negative logarithm of the EC50 (pEC50) in series [1] and in series [2] were 5.55 and 5.67, respectively.

For `CCc1ncccc1Oc1cc(Sc2ccccn2)cnc1NC(=O)NCc1ccccn1`, the pEC50 in series [1] was 5.40; in series [2], 5.79.

For `CCc1ncccc1Oc1cc(Sc2ccccn2)cnc1NC(=O)NCc1cccnc1`, the negative-log EC50 (pEC50) in series [1] is 5.71; in series [2], 6.12.

As to `CCc1ncccc1Oc1cc(Sc2ccccn2)cnc1NC(=O)NCc1ccncc1`, the results for the negative-log EC50 (pEC50) in series [1] and in series [2] were 5.94 and 6.02, respectively.

For `CCc1ncccc1Oc1cc(Sc2ccccn2)cnc1NC(=O)NCc1ccccc1O`, the pEC50 was 5.23 in series [1] and 6.41 in series [2].

For the molecule `CCc1ncccc1Oc1cc(Sc2ccccn2)cnc1NC(=O)NCc1cccc(O)c1`, the negative-log EC50 (pEC50) in series [1] was 5.55; in series [2] it was 6.56.

(Values after ChEMBL document CHEMBL3352420, “Discovery of 2-pyridylureas as glucokinase activators” (J Med Chem, 2014).)
